Test results reported in ChEMBL document CHEMBL1201862, “PubChem BioAssay data set” (2004).
Active and inactive are the calls of the source. Peptide text beside a SMILES is read from it. * marks the point of attachment. Cbz = O=C(OCc1ccccc1)*

Columns and labels:
Melanocortin receptor 4 = Melanocortin receptor 4 (Homo sapiens, UniProt P32245); experiment: inhibitors of MC4R cAMP signaling – cell-based, TR-FRET, biased antagonists, dose response (AID 602298); type: functional;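 further: antagonist potency against agonist-stimulated cAMP production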
Melanocortin receptor 4, sequence (P32245 whole entry): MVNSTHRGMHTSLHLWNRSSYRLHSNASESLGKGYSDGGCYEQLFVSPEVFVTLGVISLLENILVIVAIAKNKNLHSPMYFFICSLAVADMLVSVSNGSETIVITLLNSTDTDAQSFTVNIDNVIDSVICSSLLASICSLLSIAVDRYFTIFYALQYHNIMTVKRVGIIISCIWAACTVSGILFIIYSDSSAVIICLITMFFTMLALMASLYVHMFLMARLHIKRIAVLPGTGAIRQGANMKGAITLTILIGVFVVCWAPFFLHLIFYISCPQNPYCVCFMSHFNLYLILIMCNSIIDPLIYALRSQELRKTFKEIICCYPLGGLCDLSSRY

[1] = cAMP pathway inhibition in counterscreen cell line – TR-FRET cAMP detection, counter-screen for MC4R biased antagonist project, dose response (AID 602305); type: functional, cell-based;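 further: U2OS cells stimulated with forskolin near its EC80 as the cAMP inducer; potency is for inhibition of forskolin-stimulated cAMP signaling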
[2] = Luminescence Cell-Based Dose Confirmation HTS to Identify Activators of 5'UTR Stem-Loop Driven Alpha-Synuclein mRNA Translation in H4 Neuroglioblastoma Cells. [Related pubchem assays: 1829 (Project Summary), 1814 (Primary HTS)]; type: functional
[3] = Luminescence Cell-Based Dose Response HTS to Identify Activators of Luciferase Translation or Activity in H4 […] Cells. [Related pubchem assays: 1829 (Project Summary), 1814 (Primary HTS)]; type: functional
H4 = experiment: Luminescence Cell-Based Dose Response HTS to Identify Activators of 5'UTR Stem-Loop Driven Prion Protein mRNA Translation in H4 Neuroglioblastoma Cells. [Related pubchem assays: 1829 (Project Summary), 1814 (Primary HTS)]; type: functional; settings: Homo sapiens
[4] = molecular target: 26S proteasome non-ATPase regulatory subunit 14 (Homo sapiens, UniProt O00487); experiment: inhibition of proteasome subunit RPN11 – biochemical, fluorescence polarization, uHTS hits, confirmation (AID 602368); type: functional
26S proteasome non-ATPase regulatory subunit 14, sequence (O00487 whole entry): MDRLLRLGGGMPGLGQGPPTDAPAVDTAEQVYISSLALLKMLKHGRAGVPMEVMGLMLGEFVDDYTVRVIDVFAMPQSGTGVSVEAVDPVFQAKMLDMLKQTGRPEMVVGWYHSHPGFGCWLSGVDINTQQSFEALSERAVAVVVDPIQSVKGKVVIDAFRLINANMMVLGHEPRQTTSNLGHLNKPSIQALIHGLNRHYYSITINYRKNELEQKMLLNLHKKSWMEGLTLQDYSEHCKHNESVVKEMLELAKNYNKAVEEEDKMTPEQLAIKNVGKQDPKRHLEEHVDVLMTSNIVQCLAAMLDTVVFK

[5] = molecular target: 72 kDa type IV collagenase (Homo sapiens, UniProt P08253); experiment: Dose Response validation of uHTS RPN11 inhibitor hits using a MMP-2 Fluorescence assay.; type: functional
72 kDa type IV collagenase, sequence (P08253 whole entry): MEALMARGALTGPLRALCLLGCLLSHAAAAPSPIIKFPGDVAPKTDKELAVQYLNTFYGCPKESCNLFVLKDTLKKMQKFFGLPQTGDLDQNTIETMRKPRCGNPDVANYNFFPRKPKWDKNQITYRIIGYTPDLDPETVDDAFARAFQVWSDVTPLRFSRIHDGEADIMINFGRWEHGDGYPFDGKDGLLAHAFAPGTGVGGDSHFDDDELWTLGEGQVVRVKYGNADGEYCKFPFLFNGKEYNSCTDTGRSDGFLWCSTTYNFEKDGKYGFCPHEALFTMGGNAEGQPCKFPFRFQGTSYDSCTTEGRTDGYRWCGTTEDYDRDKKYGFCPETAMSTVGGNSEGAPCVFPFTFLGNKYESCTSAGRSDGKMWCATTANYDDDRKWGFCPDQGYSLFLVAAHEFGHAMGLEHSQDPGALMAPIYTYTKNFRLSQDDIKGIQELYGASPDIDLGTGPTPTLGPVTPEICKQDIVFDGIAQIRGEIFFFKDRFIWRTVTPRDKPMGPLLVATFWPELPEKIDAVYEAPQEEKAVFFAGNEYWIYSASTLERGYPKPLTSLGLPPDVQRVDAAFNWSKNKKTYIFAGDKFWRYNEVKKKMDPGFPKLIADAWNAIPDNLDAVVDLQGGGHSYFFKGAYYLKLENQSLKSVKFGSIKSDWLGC

Prothrombin = Prothrombin (Bos taurus, UniProt P00735); experiment: thrombin protease inhibitors – biochemical, fluorescence polarization, uHTS hits, dose response (AID 602369); type: functional
[6] = molecular target: T1, Rac GTPase-activating protein 1 (Homo sapiens, UniProt Q9H0H5); experiment: blockers of MgcRacGAP-driven Rac1 GTP hydrolysis – biochemical, ADP Hunter fluorescence, primary and confirmatory, confirmation (AID 624330); type: functional
T1 sequence (Q9H0H5 whole entry): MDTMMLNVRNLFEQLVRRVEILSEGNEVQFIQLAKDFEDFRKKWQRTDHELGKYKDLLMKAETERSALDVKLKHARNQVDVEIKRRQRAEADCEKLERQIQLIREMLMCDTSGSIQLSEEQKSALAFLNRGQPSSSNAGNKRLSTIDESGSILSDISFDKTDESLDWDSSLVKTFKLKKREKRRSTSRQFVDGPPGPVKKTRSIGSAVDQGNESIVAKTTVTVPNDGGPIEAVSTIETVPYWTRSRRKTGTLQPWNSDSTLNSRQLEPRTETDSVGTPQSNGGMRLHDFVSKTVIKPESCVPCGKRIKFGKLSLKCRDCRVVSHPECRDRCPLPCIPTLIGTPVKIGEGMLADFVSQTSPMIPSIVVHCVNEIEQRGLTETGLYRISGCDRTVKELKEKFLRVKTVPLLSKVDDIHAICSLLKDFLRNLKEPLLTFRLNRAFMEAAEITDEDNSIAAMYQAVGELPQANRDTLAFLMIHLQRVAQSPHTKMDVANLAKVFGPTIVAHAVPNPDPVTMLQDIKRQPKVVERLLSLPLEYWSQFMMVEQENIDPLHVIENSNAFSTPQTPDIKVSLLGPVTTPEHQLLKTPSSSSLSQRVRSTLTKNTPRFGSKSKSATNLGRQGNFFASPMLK

BJ [7] = experiment: BJ-TERT fibroblast viability loss – cell-based, RAS-independent, luminescence, dose response (AID 1933); type: functional; settings: Homo sapiens
BJ [8] = experiment: cells; type: functional, cell-based; settings: Homo sapiens
[9] = molecular target: Luciferin 4-monooxygenase (Photinus pyralis, UniProt P08659); experiment: inhibition of purified Photinus pyralis luciferase – biochemical, luminescence, dose response (AID 1891)
Luciferin 4-monooxygenase, sequence (P08659 whole entry): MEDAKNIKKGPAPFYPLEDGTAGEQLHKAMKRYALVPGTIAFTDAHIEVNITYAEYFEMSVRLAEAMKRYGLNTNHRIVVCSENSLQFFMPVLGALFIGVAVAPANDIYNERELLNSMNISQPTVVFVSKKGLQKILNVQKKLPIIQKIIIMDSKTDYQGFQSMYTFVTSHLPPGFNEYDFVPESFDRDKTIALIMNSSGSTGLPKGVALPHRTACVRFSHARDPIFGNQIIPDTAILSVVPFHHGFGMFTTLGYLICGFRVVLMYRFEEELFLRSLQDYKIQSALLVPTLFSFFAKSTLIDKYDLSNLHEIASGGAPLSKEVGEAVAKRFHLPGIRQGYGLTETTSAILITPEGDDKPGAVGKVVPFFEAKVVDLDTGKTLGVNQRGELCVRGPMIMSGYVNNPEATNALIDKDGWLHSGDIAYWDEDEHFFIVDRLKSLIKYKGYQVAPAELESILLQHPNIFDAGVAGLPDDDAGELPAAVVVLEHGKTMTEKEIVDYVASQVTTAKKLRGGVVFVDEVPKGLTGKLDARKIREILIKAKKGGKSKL

[10] = Luminescence Cell-Based Dose Confirmation HTS to Identify Inhibitors of Platelet Dense Granule Release. [Related pubchem assays: 1663 (Primary HTS), 1678 (Summary of Project)]; type: functional
BJ [11] = experiment: BJ-TERT-LT-ST fibroblast viability loss – cell-based, RAS-independent, luminescence, dose response (AID 1935); type: functional; settings: Homo sapiens;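 further: BJ fibroblasts immortalized with TERT plus LT and ST oncogenes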
[12] = DRD fibroblast viability loss – cell-based, non-viral oncogenic, luminescence, dose response (AID 1934); type: functional; settings: Homo sapiens
[13] = ADP-Glo luciferase signal interference – biochemical, luminescence, cherry-picked samples, set 2, artefact control for CDK5 inhibitor project, dose response (AID 504546); type: functional, cell-based
[14] = molecular target: Cyclin-dependent kinase 5/CDK5 activator 1 (Homo sapiens, UniProt Q00535); experiment: blockade of human CDK5 activity – biochemical, cherry-picked samples, set 2, dose response (AID 504545)
BJ [15] = experiment: growth inhibition of engineered Ras-driven BJ cells – cell-based, alamar blue fluorescence, cherrypicked samples, dose response (AID 2631); type: functional; settings: Homo sapiens;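 further: confirmatory dose-response assay in RAS-dependent BJ fibroblasts engineered with TERT, LT and ST, with cytotoxicity read by fluorescence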
[16] = molecular target: Dual specificity tyrosine-phosphorylation-regulated kinase 1A (Rattus norvegicus, UniProt Q63470); type: biochemical, Homo sapiens
[17] = bead-based luminescence quenchers, dual-tagged ARNT – biochemical, AlphaScreen, cherry-pick, artefact control for ARNT-TACC3 interaction inhibitor project, dose response (AID 651705); type: functional;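 further: AlphaScreen bead proximity signal that flags compounds interfering with the detection technology; potency reflects signal decrease which marks the compound as an assay artifact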
[18] = NIH-3T3 fibroblast cytotoxicity, dose response, cytotoxicity control, cell-based, fluorescence, Alamar Blue, secondary assay (AID 2327); type: functional;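 further: NIH-3T3 mouse fibroblasts cultured with fluconazole at 8 µg/mL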
[19] = fluconazole-exposed Candida albicans growth modulators – fluorescence, retest, confirmation (AID 2467); type: functional, cell-based
[20] = molecular target: T2, Serine/threonine-protein phosphatase (Candida dubliniensis (strain CD36 / CBS 7987 / NCPF 3949 / NRRLY-17841) (Yeast), UniProt B9W6M3); experiment: blockers of CaCl2-induced CDRE-lacZ signaling – S. cerevisiae, luminescence, secondary, dose response (AID 2388); type: functional, cell-based;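 further: yeast reporter cells carrying a calcineurin-responsive lacZ construct stimulated with calcium chloride; luminescent beta-galactosidase reporter signal in whole cells rather than isolated phosphatase activity; potency for inhibition where a drop in reporter signal means calcineurin blockade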
T2 sequence (B9W6M3 whole entry): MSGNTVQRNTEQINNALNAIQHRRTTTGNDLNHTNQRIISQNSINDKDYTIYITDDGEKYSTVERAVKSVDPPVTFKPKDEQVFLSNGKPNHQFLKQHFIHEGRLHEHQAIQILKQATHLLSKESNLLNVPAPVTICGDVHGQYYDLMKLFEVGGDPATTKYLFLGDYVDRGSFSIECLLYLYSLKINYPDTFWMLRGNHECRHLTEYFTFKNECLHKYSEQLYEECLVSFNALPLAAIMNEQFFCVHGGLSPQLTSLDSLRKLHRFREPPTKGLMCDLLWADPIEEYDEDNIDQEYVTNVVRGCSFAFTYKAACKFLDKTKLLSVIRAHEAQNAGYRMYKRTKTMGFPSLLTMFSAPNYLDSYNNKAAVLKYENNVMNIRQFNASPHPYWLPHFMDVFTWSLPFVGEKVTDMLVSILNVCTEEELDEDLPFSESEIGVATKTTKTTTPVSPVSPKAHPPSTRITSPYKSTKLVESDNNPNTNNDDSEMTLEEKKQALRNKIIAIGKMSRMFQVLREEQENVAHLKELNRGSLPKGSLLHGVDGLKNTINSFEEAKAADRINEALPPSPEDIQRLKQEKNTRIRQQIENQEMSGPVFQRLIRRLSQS

[21] = molecular target: Benomyl/methotrexate resistance protein (Candida albicans, UniProt P28873); experiment: Candida albicans Mdr1 pump inhibition curves – singleplex, Cherry Pick1 hits, dose response (AID 588608); type: functional
[22] = molecular target: ATP-dependent molecular chaperone HSP82 (Candida albicans (strain WO-1) (Yeast), UniProt C4YTQ8); experiment: steroid-induced GRE reporter decrease in yeast – S. cerevisiae, luminescence, Hsp90 inhibitor project, dose response (AID 2400); type: functional, cell-based;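 further: beta-galactosidase luminescence from glucocorticoid response element reporter as proxy for Hsp90 function; inhibitor potency where signal loss means Hsp90 inhibition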
Interleukin-8 [23] = molecular target: T3, Interleukin-8 (Homo sapiens, UniProt P10145); experiment: Dose Response confirmation of uHTS small molecule hits for cystic fibrosis induced NFkb Inhibitors in a TNFa-induced IL8 counterscreen.; type: functional; settings: read-out: IC50_Mean
T3 sequence (P10145 whole entry): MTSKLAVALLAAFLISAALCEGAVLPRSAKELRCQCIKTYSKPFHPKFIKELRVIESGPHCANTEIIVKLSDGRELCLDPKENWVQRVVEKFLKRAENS

Interleukin-8 [24] = molecular target: T3, Interleukin-8; experiment: Dose Response confirmation of uHTS small molecule hits for cystic fibrosis induced NFkb Inhibitors in a PAF-induced IL8 counterscreen.; type: functional; settings: read-out: IC50_Mean
Fatty acid synthase [25] = molecular target: T4, Fatty acid synthase (Homo sapiens, UniProt P49327); experiment: inhibition of human FAS-TE enzyme activity – biochemical, endpoint fluorescence intensity, uHTS hits, dose response (AID 624327); type: functional;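 further: fluorescence from hydrolysis of an O-methyl fluorescein acyl ester substrate by the enzyme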
T4 sequence (P49327 whole entry): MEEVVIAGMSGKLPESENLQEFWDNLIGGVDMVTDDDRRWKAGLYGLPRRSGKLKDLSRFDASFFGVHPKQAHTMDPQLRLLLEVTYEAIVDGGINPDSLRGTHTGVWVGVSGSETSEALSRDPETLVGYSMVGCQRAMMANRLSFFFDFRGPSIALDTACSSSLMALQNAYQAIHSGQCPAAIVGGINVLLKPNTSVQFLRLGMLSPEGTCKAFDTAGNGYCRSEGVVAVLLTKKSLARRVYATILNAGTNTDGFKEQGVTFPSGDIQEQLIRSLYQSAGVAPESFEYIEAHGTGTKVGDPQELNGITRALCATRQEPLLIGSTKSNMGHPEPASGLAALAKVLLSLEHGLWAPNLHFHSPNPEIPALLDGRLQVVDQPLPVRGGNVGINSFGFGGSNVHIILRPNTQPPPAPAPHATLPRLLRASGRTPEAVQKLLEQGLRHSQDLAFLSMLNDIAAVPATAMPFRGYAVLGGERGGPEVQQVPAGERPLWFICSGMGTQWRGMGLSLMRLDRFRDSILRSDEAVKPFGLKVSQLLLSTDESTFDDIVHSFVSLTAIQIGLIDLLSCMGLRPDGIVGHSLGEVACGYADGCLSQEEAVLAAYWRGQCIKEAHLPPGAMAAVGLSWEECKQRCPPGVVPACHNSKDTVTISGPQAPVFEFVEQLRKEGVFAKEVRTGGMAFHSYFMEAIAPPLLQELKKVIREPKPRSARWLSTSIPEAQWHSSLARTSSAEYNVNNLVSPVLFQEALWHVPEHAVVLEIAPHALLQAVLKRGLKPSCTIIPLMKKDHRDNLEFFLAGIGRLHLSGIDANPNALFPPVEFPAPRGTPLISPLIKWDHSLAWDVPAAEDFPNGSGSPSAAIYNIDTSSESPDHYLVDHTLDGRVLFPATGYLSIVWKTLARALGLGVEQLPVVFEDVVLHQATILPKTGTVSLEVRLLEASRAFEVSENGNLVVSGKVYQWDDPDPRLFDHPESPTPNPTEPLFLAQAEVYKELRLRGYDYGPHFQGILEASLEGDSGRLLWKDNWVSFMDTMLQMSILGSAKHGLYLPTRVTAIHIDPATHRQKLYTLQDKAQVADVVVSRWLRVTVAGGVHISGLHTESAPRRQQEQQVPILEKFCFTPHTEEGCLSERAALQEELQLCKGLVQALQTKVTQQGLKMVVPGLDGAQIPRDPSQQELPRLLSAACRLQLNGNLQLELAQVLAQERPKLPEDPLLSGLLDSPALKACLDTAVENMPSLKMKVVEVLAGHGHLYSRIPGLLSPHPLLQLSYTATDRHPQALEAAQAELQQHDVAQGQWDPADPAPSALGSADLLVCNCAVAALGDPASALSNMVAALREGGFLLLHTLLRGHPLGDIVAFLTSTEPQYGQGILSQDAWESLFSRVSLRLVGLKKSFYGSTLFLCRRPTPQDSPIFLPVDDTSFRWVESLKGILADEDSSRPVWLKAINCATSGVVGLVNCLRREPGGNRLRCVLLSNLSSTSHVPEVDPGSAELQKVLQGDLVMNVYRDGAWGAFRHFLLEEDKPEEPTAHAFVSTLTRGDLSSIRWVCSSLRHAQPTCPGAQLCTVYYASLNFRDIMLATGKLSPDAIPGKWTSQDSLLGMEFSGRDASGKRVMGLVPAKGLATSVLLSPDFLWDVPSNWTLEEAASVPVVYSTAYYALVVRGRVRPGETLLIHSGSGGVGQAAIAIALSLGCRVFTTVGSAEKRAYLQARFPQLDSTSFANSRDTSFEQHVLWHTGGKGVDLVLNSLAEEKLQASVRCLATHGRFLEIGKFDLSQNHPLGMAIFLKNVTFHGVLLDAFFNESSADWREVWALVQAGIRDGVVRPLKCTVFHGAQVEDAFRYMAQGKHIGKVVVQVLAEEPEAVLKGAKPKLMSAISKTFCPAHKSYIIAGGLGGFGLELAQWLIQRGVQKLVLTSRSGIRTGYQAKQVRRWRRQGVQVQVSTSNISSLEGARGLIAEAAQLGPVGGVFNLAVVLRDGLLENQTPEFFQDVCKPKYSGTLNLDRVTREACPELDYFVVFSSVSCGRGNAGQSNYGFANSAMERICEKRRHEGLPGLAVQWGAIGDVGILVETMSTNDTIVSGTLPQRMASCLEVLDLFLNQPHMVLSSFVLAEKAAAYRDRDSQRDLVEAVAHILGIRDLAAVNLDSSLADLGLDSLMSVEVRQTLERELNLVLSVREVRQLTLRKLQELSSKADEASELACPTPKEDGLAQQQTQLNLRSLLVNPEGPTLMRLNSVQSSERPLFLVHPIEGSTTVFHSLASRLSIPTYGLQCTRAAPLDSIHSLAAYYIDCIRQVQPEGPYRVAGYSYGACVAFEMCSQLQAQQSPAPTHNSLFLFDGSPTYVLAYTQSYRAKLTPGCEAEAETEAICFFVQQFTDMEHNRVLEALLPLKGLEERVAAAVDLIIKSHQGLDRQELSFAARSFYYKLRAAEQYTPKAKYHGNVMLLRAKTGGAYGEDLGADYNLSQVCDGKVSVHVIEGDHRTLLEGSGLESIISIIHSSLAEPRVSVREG

Fatty acid synthase [26] = molecular target: T4, Fatty acid synthase; experiment: inhibition of human FAS-TE enzyme activity – biochemical, kinetic fluorescence intensity, dose response (AID 624326); type: functional;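 further: rate of fluorescence rise from hydrolysis of a fluorogenic O-methyl fluorescein ester substrate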
[27] = molecular target: DNA dC->dU-editing enzyme APOBEC-3G (Homo sapiens, UniProt Q9HC16); experiment: inhibition of APOBEC3G ssDNA deamination – biochemical, fluorescence, single-stranded DNA substrate, SAR follow-up (AID 602136); type: functional; settings: read-out: IC50_Mean
DNA dC->dU-editing enzyme APOBEC-3G, sequence (Q9HC16 whole entry): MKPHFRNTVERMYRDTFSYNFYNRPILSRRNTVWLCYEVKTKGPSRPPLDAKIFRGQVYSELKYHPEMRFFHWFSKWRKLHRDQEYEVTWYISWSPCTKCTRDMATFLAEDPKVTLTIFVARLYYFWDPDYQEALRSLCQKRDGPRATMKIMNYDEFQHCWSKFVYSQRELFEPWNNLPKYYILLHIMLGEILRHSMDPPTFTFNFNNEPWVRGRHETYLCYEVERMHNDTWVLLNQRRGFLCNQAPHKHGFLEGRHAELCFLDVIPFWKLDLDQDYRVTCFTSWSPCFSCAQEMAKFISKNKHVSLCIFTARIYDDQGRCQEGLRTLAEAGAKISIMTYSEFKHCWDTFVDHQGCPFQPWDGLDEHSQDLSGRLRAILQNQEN

[28] = molecular target: DNA dC->dU-editing enzyme APOBEC-3A (Homo sapiens, UniProt P31941); experiment: SAR analysis of small molecule inhibitors of APOBEC3A DNA Deaminase via a fluorescence-based single-stranded DNA deaminase assay.; type: functional; settings: read-out: IC50_Mean
DNA dC->dU-editing enzyme APOBEC-3A, sequence (P31941 whole entry): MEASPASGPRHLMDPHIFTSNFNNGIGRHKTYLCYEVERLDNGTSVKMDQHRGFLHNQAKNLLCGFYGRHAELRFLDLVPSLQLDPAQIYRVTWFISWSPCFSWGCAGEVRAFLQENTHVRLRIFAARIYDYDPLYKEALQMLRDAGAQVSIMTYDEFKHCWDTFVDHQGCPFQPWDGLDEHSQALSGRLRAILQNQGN

[29] = viability loss in HeLa cells – cytotoxicity control for MgcRacGAP inhibitor project, dose response (AID 624300); type: functional
[30] = A Cell Based Secondary Assay to Explore Cytotoxicity in THP-1 Cells of Compounds that Modulate Mycobacterium tuberculosis in Media Containing Glycerol versus Media without Glycerol (2).; type: functional
[31] = Vero cell cytotoxicity, cytotoxicity control for M. tuberculosis inhibitor project, purified and synthesized samples, set 3 (AID 504684); type: functional
[32] = Trypanosoma cruzi growth suppression in host cells – NIH3T3 host cells, beta-gal luminescence, confirmation (AID 2044); type: functional, cell-based;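 further: intracellular parasites grown in NIH/3T3 mouse fibroblasts as host cells; luminescent beta-galactosidase reporter signal from transgenic T. cruzi replicating inside host cells; inhibitors lower the luminescence signal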
[33] = NIH3T3 cell viability loss – ATP luminescence, mouse fibroblasts, counter-screen, dose response (AID 2010); type: functional, cell-based;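 further: cells exposed to compound for about 90 hours before reading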
[34] = molecular target: Heat shock protein HSP 90-alpha (Homo sapiens, UniProt P07900); type: functional, organism-based
[35] = molecular target: Aryl hydrocarbon receptor (Homo sapiens, UniProt P35869); settings: Potency;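 further: confirmatory quantitative high-throughput screen measuring activation of the AhR signaling pathway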

O=C(COC(=O)CCN1C(=O)c2cccc([N+](=O)[O-])c2C1=O)NCc1ccccc1
IC50 (Melanocortin receptor 4): > 64.6 µM (inactive) | IC50 [1]: > 64.6 µM (inactive)

Cc1c(N=Nc2ccc(N(C)C)cc2)c(=O)n(-c2ccccc2)n1C
EC50 [2]: 11.1 µM (active) | EC50 [3]: 6.8 µM (active) | EC50 (H4): 34.5 µM (active) | IC50 [4]: 73.1 µM (active) | IC50 [5]: > 100 µM (inactive) | IC50 (Prothrombin): 42.8 µM (active) | IC50 [6]: 56.9 µM (active)

O=C(c1ccc2c3n(nc2c1)-c1ccccc1CO3)N1CCOCC1
EC50 (BJ [7]): 4.57 µM (inconclusive) | EC50 (BJ [8]): 3.76 µM (active) | EC50 [9]: 1.55 µM (active) | EC50 [10]: 10.8 µM (active) | EC50 (BJ [11]): 17 µM (active) | EC50 [12]: 5.29 µM (active) | AC50 [13]: 17.7 µM (active) | AC50 [14]: 12.3 µM (active) | EC50 (BJ [15]): > 133 µM (inactive) | AC50 [16]: 12.6 µM (active)

O=C(COc1ccccc1)Nc1nnc(-c2ccccc2)o1
AC50 [17]: 93.8 µM (active)

Cn1cc(C(c2ccccn2)c2cn(C)c3ccccc23)c2ccccc21
EC50 [18]: 55.6 µM (active) | EC50 [19]: 0.157 µM (active) | EC50 [20]: > 180 µM (inactive) | EC50 [21]: 7.76 µM (active) | EC50 [22]: > 150 µM (inactive)

CN1CCC(OC(=O)c2cc3cc(Cl)cc(Cl)c3oc2=O)CC1
IC50 (Interleukin-8 [23]): 8.62 µM (active) | IC50 (Interleukin-8 [24]): 3.45 µM (active)

COc1ccc(NC(=O)Nc2cccc3c2O[C@H](CN(C)C(=O)Nc2ccc(C(F)(F)F)cc2)[C@@H](C)CN([C@H](C)CO)C3=O)cc1
IC50 (Melanocortin receptor 4): 23.1 µM (inactive) | IC50 [1]: > 64.6 µM (inactive) | IC50 (Fatty acid synthase [25]): 11.6 µM (active) | IC50 (Fatty acid synthase [26]): 7.98 µM (active)

c1cnc2nc(SCc3cn4ccccc4n3)[nH]c2c1
IC50 [27]: > 99 µM (inactive) | IC50 [28]: > 99 µM (inactive)

Cn1c(SCC(=O)c2ccccc2)nnc1-c1sc2ccccc2c1Cl
IC50 [27]: > 99 µM (inactive) | IC50 [28]: > 99 µM (inactive)

CCc1ccc(O)c(/N=C/c2cccc(C)c2O)c1
IC50 [4]: 29.4 µM (active) | IC50 [5]: > 100 µM (inactive) | IC50 (Prothrombin): 11.8 µM (active) | CC50 [29]: 100 µM (active) | IC50 [6]: 45.5 µM (active)

CCOC(=O)CNC(=O)[C@H](Cc1ccccc1)NC(=O)OCc1ccccc1 (Cbz-Phe-Gly-OEt)
CC50 [30]: 58.5 µM (active) | CC50 [31]: 32.1 µM (active)

CCCC1COC(Cn2cncn2)(c2ccc(Cl)cc2Cl)O1 (configuration not stated) [PROPICONAZOLE]
EC50 [32]: < 0.1 µM (active) | EC50 [33]: > 60 µM (not active) | AC50 [34]: < 0.195 µM (active) | AC50 [35]: 70.8 µM (inconclusive) | EC50 (cells): 0.041 µM (active)
